Results on 25 molecules are retold here after US11897862B2 (Gilead Sciences, Inc., priority 2022, dated 2024).

Common to all, as to assay type: cell-based
The target in assay [1] is T1, IKZF2 (Homo sapiens, UniProt Q96SW2+Q9UKS7). Nature of the assay: Human whole blood IKZF2 degradation (flow cytometry, CD4/CD25/Foxp3+ Treg cells). Further details: endogenous in cells. The settings on record: 24 hrs incubation, IKZF2 MFI in CD4/CD25/Foxp3+ Treg cells, flow cytometry; for DC50: read-out: IKZF2 EC50. The procedure:
In vitro IKZF2 potency was assessed in human whole blood using a fluorescence activated cell sorting assay. 50 μL of freshly collected blood from healthy human volunteers was incubated with Immunocult CD3/CD28 activator (Stemcell Technologies) and solution of testing compounds (serially-diluted) for 24 hrs hours at 37° C. in 384 well plates. The treated red blood cells were removed by adding lysis buffer (BD cat #558049) then the cells were fixed, permeabilized, and stained with anti-CD4 (BD cat #564419), anti-Foxp3 (Invitrogen cat #48-4777-42), anti-IKZF1 (Cell Signaling Tech. cat #33462S), and anti-IKZF2(Cell Signaling Tech. cat #65432S) antibodies. The median fluorescent intensity (MFI) of IKZF2 signal from CD4/CD25/Foxp3+ Treg cells and MFI of IKZF1 signal from CD4+ T cells were quantified in the same samples by flow cytometry using an Attune instrument. EC50 and Dmax of each compound was determined by plotting the MFI and DMSO treated wells were used as control. Asterisks (*) indicate examples for which data represents an average of n≥3 repeat experiments.
Target sequence in this assay (Q9UKS7 whole entry): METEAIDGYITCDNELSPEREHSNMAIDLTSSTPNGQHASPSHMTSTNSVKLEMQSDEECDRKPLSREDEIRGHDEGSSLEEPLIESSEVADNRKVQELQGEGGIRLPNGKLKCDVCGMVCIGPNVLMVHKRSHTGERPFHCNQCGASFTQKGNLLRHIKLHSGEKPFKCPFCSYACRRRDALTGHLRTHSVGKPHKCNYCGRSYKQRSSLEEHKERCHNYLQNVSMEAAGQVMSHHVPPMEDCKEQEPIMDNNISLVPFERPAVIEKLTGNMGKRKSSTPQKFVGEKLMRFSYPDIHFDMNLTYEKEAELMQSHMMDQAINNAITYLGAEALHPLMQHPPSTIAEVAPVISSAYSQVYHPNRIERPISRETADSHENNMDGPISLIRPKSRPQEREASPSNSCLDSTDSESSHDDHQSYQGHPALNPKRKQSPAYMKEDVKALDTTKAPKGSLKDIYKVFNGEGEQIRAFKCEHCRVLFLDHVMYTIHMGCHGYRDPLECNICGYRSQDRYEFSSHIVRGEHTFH
Target sequence in this assay (Q96SW2 whole entry): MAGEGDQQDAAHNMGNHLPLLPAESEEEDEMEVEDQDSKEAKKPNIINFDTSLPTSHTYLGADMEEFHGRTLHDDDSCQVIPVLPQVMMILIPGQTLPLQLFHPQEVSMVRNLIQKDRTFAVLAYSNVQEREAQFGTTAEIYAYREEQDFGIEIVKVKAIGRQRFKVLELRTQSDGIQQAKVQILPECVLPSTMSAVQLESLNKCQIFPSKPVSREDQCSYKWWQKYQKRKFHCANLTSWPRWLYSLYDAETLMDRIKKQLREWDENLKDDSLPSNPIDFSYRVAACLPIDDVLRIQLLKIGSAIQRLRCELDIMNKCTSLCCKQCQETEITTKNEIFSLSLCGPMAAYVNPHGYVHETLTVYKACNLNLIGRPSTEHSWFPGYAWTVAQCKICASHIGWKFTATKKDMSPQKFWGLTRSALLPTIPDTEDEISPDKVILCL
Target sequence in this assay (Q16531 whole entry partner): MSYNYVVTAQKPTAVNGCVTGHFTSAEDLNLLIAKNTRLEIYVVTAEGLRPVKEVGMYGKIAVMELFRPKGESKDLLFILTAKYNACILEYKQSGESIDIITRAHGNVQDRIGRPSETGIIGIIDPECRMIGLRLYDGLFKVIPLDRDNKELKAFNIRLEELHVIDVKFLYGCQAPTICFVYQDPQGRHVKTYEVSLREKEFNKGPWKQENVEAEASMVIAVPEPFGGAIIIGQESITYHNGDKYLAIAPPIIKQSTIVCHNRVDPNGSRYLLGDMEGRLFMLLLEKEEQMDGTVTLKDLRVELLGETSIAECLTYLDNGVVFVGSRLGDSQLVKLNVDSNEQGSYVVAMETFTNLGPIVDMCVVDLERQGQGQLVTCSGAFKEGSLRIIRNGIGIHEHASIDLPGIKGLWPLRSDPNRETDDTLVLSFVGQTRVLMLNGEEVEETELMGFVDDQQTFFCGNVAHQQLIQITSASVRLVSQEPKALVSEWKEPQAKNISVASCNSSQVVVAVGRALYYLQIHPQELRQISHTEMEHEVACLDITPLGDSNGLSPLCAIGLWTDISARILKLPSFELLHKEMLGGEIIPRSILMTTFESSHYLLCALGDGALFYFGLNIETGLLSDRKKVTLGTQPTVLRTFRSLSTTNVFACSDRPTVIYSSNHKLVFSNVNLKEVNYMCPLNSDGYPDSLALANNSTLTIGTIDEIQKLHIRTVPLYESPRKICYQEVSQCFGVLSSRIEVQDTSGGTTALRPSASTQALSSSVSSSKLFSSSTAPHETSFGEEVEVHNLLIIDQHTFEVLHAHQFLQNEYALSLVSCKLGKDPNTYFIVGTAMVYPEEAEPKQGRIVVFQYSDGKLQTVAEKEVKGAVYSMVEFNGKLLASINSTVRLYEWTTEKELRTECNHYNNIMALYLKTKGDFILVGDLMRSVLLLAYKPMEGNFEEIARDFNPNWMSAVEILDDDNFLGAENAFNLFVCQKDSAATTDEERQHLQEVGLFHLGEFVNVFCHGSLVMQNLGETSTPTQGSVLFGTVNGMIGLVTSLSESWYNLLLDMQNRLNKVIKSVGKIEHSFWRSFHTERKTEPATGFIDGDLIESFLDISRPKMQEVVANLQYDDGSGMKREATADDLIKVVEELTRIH
(Flow cytometry measures light scatter and fluorescence of single cells or particles in a stream.)

The next assay deals with T2, IKZF1 (Homo sapiens, UniProt Q13422+Q96SW2).
T2 construct: expressed in transfected cells
In words: HEK293 HiBiT in vitro degradation of IKZF1. The settings on record: for Dmax: HEK293, HEK293 HiBiT; for Dmax / IKZF1 Dmax: maximum degradation at the highest concentration tested; for DC50 / IKZF1 Dmax: HEK293 HiBiT; for DC50: 18-24 hr incubation, normalized to DMSO control, read-out: IKZF1 EC50. The procedure, abridged: (§1)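 Stable HEK293 reporter pools, each with one integrated tet-inducible copy of a HiBiT-tagged target, were induced with doxycycline overnight at 37 °C. After 18-24 h with compound dilution series, Nano-Glo lysis and luminescence yielded EC50 and Dmax values.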
In general terms: With HiBiT, luminescence reflects the tagged protein that the partner subunit can reach.

Assay [2] has as its target T1, IKZF2. In words: HEK293 HiBiT in vitro degradation of IKZF2. Further details: expressed in transfected cells. To be noted: for Dmax: HEK293, HEK293 HiBiT; for Dmax / IKZF2 Dmax: maximum degradation at the highest concentration tested; for DC50 / IKZF2 Dmax: HEK293 HiBiT; for DC50: 18-24 hr incubation, normalized to DMSO control, read-out: IKZF2 EC50. The procedure, abridged:
as §1
Target sequence in this assay (Q9UKS7 1-500 isoform Q9UKS7-2): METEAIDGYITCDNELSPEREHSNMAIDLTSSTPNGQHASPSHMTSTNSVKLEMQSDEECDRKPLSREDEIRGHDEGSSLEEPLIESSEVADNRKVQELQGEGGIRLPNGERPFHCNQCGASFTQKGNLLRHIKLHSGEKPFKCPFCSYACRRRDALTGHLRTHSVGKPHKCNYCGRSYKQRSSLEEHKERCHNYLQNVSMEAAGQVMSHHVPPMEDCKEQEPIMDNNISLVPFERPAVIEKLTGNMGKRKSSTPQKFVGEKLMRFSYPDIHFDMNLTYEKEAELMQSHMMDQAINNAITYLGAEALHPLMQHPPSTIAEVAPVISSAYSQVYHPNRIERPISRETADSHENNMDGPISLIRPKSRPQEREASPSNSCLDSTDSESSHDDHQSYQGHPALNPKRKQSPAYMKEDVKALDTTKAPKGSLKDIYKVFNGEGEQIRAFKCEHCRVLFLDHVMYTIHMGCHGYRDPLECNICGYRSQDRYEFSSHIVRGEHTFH
Target sequence in this assay (Q96SW2 whole entry): as the sequence (Q96SW2 whole entry) above
Target sequence in this assay (Q16531 whole entry partner): as the sequence (Q16531 whole entry partner) above

T2 sequence (Q13422 whole entry): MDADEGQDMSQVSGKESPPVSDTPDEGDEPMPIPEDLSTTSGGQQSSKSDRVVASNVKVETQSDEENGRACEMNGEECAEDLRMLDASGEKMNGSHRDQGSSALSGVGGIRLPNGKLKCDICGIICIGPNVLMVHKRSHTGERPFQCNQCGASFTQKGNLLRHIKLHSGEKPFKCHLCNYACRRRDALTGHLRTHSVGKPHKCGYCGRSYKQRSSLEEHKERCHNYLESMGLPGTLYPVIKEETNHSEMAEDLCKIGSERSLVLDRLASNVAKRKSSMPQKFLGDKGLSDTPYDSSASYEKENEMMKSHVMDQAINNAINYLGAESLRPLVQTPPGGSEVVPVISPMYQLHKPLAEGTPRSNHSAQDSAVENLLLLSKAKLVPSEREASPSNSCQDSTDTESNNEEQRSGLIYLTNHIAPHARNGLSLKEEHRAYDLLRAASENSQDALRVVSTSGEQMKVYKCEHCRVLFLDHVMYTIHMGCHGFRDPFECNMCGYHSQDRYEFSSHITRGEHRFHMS
T2 sequence (Q96SW2 whole entry): as the sequence (Q96SW2 whole entry) above
T2 sequence (Q16531 whole entry partner): as the sequence (Q16531 whole entry partner) above

The Dmax is the greatest extent of degradation seen. Consider `O=C1CCC(N2Cc3cc(C[C@H]4CCCC[C@@H]4NC4CCC5(CC5)C4)ccc3C2=O)C(=O)N1` (single isomer, unassigned) [Example 281], for which the Dmax worked out at 98% at IKZF2 [1], 30% at IKZF1 and 96% on IKZF2 [2]. The DC50 at IKZF2 [1] was 5 nM; on IKZF1, 43 nM; at IKZF2 [2] it was 2 nM.
Take `O=C1CCC(N2Cc3cc(C[C@H]4CCCC[C@@H]4NC4CCC(C(F)F)CC4)ccc3C2=O)C(=O)N1` (some centres unmarked) [Example 217]: at IKZF2 [1], the Dmax was 89% and the DC50 is 2 nM. For the same molecule, at IKZF1, the DC50 turned out to be 85 nM and the “IKZF1 Dmax” value was 44%. At IKZF2 [2], the DC50 was 3 nM and the “IKZF2 Dmax” value was determined as 97%.
Take `CC(C)(C)CCN[C@H]1CCCC[C@@H]1Cc1ccc2c(c1)CN(C1CCC(=O)NC1=O)C2=O` (stereo partly drawn) [Example 56, 3-(5-(((1R,2S)-2-((3,3-dimethylbutyl)amino)cyclohexyl)methyl)-1-oxoisoindolin-2-yl)piperidine-2,6-dione]: the figures for the Dmax at IKZF2 [1], on IKZF1 and on IKZF2 [2] were 97%, 44% and 96%, respectively. In addition, the DC50 at IKZF2 [1] worked out at 8 nM; at IKZF1 it was 68 nM; on IKZF2 [2] it was 14 nM.
Turning to `CC(C)N[C@H]1CCCC[C@@H]1Cc1ccc2c(c1F)CN(C1CCC(=O)NC1=O)C2=O` (stereo partly drawn) [Example 85, 3-(4-fluoro-5-(((1R,2S)-2-(isopropylamino)cyclohexyl)methyl)-1-oxoisoindolin-2-yl)piperidine-2,6-dione], the Dmax on IKZF2 [1] is 96%; on IKZF1 it was 40%; at IKZF2 [2], 97%. For the same molecule, the DC50 worked out at 2 nM at IKZF2 [1], 70 nM at IKZF1 and 2 nM on IKZF2 [2].
Regarding `[2H]C1(N[C@H]2CCCC[C@@H]2Cc2ccc3c(c2)CN(C2CCC(=O)NC2=O)C3=O)CC(C)(C)C1` (some centres unmarked) [Example 214], the Dmax at IKZF2 [1] came out at 98%; on IKZF1, 22%; on IKZF2 [2], 96%. For the same molecule, the values for the DC50 on IKZF2 [1], at IKZF1 and at IKZF2 [2] were 3 nM, 65 nM and 5 nM, respectively.
Take `CC(N[C@H]1CCCC[C@@H]1Cc1ccc2c(c1)CN(C1CCC(=O)NC1=O)C2=O)C1(C)CCC1` (some centres unmarked) [Example 206]: the Dmax on IKZF2 [1] was 101%; at IKZF2 [2], 95%. Further, the results for the DC50 at IKZF2 [1], on IKZF1 and at IKZF2 [2] were 10 nM, over 1000 nM and 6 nM, respectively.
As to `O=C1CCC(N2Cc3cc(C[C@H]4CCCC[C@@H]4NC4CC5(CC5)C4)ccc3C2=O)C(=O)N1` (stereo partly drawn) [Example 79, 3-(1-oxo-5-(((1R,2S)-2-(spiro[2.3]hexan-5-ylamino)cyclohexyl)methyl)isoindolin-2-yl)piperidine-2,6-dione], the Dmax on IKZF2 [1] is 93%; at IKZF1 it was 33%; at IKZF2 [2], 94%. The DC50 at IKZF2 [1] was determined as 5 nM; at IKZF1, 98 nM; on IKZF2 [2] it was 5 nM.
On to `CC(N[C@H]1CCCC[C@@H]1Cc1ccc2c(c1)CN(C1CCC(=O)NC1=O)C2=O)C1(C#N)CC1` (single isomer, unassigned) [Example 256], for which, on IKZF2 [1], the Dmax is 95% and the DC50 is 10 nM. The DC50 at IKZF1 was over 1000 nM.
Regarding `CC(N[C@H]1CCCO[C@@H]1Cc1ccc2c(c1F)CN(C1CCC(=O)NC1=O)C2=O)C1CCOCC1` (single isomer, unassigned) [Example 298], the DC50 at IKZF1 is over 1000 nM. Moreover, at IKZF2 [2], the DC50 stood at 55 nM and the “IKZF2 Dmax” value came to 76%.
Consider `O=C1CCC(N2Cc3cc(C[C@H]4C[C@@H](F)CC[C@@H]4NC4CCC(F)(F)CC4)ccc3C2=O)C(=O)N1` (some centres unmarked) [Example 341], for which the DC50 on IKZF1 was over 1000 nM; at IKZF2 [2], 21 nM. Further, the Dmax on IKZF2 [2] turned out to be 87%.
Regarding `O=C1CCC(N2Cc3cc(C[C@H]4CCCC[C@@H]4NC4CC5CC(C5)C4)ccc3C2=O)C(=O)N1` (stereo partly drawn) [Example 29, 3-(5-(((1R,2S)-2-(bicyclo[3.1.1]heptan-3-ylamino)cyclohexyl)methyl)-1-oxoisoindolin-2-yl)piperidine-2,6-dione], on IKZF1, the Dmax turned out to be 39% and the DC50 came out at 574 nM. Moreover, on IKZF2 [2], the Dmax was determined as 96% and the DC50 was 5 nM.
On to `O=C1CCC(N2Cc3cc(C[C@H]4CCCC[C@@H]4N4CC(Oc5ccccc5)C4)ccc3C2=O)C(=O)N1` (stereo partly drawn) [Example 32, 3-(1-oxo-5-(((1R,2S)-2-(3-phenoxyazetidin-1-yl)cyclohexyl)methyl)isoindolin-2-yl)piperidine-2,6-dione], for which the values for the DC50 at IKZF1 and on IKZF2 [2] were over 1000 nM and 21 nM, respectively. Also, at IKZF2 [2], the Dmax was found to be 90%.
The like results for `O=C1CCC(N2Cc3cc(C[C@H]4CCCC[C@@H]4NCc4cc(F)ccc4F)ccc3C2=O)C(=O)N1` (stereo partly drawn) [Example 22, 3-(5-(((1R,2S)-2-((2,5-difluorobenzyl)amino)cyclohexyl)methyl)-1-oxoisoindolin-2-yl)piperidine-2,6-dione] were, in that order, over 1000 nM, 34 nM and 86%.
As to `O=C1CCC(N2Cc3cc(C[C@H]4CCCC[C@@H]4NCc4ccccc4Cl)ccc3C2=O)C(=O)N1` (stereo partly drawn) [Example 3, 3-(5-(((1R,2S)-2-((2-chlorobenzyl)amino)cyclohexyl)methyl)-1-oxoisoindolin-2-yl)piperidine-2,6-dione], the results for the Dmax at IKZF1 and on IKZF2 [2] were 38% and 94%, respectively. In addition, the DC50 on IKZF1 stood at 34 nM; at IKZF2 [2], 19 nM.
With `N#CCC1CCC(N[C@H]2CCCC[C@@H]2Cc2ccc3c(c2)CN(C2CCC(=O)NC2=O)C3=O)CC1` (single isomer, unassigned) [Example 269], the Dmax at IKZF1 is 40%; at IKZF2 [2] it was 96%. Moreover, the DC50 on IKZF1 amounted to 266 nM; at IKZF2 [2], 3 nM.
As to `CCC(C)N[C@H]1CCCO[C@@H]1Cc1ccc2c(c1F)CN(C1CCC(=O)NC1=O)C2=O` (single isomer, unassigned) [Example 292], the DC50 on IKZF1 was over 1000 nM; at IKZF2 [2], 7 nM. Moreover, the Dmax on IKZF2 [2] stood at 94%.
`O=C1CC[C@H](N2Cc3cc(C[C@H]4CCCC[C@@H]4NC4CCCCC4)ccc3C2=O)C(=O)N1` (single isomer, unassigned) [Example 336]: the DC50 at IKZF1 is over 1000 nM. At IKZF2 [2], the Dmax is 97% and the DC50 was 3 nM.
On the same counts, the results for `CC(=O)N1CCC(N[C@H]2CCCC[C@@H]2Cc2ccc3c(c2)CN(C2CCC(=O)NC2=O)C3=O)CC1` (some centres unmarked) [Example 108] are over 1000 nM, 96% and 55 nM.
On to `COC1(C)CCC(N[C@H]2CCCO[C@@H]2Cc2ccc3c(c2F)CN(C2CCC(=O)NC2=O)C3=O)CC1` (single isomer, unassigned) [Example 317], for which, on IKZF1, the Dmax was 33% and the DC50 is 243 nM. At IKZF2 [2], the DC50 amounted to 6 nM and the “IKZF2 Dmax” value is recorded as 94%.
With `CC1(C)CC(N[C@H]2CCCC[C@@H]2Cc2ccc3c(c2)CN(C2CCC(=O)NC2=O)C3=O)CC(C)(C)C1` (some centres unmarked) [Example 144], the DC50 at IKZF1 was over 1000 nM; at IKZF2 [2] it was 7 nM. For the same molecule, the Dmax on IKZF2 [2] worked out at 97%.
Turning to `N#CCC1CCC(N[C@H]2CCCC[C@@H]2Cc2ccc3c(c2)CN(C2CCC(=O)NC2=O)C3=O)CC1` (single isomer, unassigned) [Example 270], at IKZF1, the DC50 came to 179 nM and the “IKZF1 Dmax” value was found to be 22%. Also, on IKZF2 [2], the DC50 is 8 nM and the “IKZF2 Dmax” value came out at 98%.
Turning to `O=C1CCC(N2Cc3cc(C[C@H]4CCCCC[C@@H]4NC4CCC(F)(F)CC4)ccc3C2=O)C(=O)N1` (some centres unmarked) [Example 340], the DC50 at IKZF1 is over 1000 nM. At IKZF2 [2], the Dmax was determined as 55% and the DC50 worked out at 76 nM.
`O=C1CCC(N2Cc3cc(C[C@H]4CCCC[C@@H]4NC4CCC(n5cnnc5)CC4)ccc3C2=O)C(=O)N1` (some centres unmarked) [Example 380]: the DC50 on IKZF1 was over 1000 nM. Further, on IKZF2 [2], the Dmax came out at 71% and the DC50 is 400 nM.
For the molecule `[2H]C1(N[C@H]2CCCC[C@@H]2Cc2ccc3c(c2F)CN(C2CCC(=O)NC2=O)C3=O)CCC2(CC2)CC1` (some centres unmarked) [Example 210], at IKZF1, the Dmax was found to be 68% and the DC50 is 30 nM. At IKZF2 [2], the Dmax stood at 97% and the DC50 is 1 nM.
With `[2H]c1c([2H])c([2H])c(CN(Cc2c([2H])c([2H])c([2H])c([2H])c2[2H])[C@H]2CCCC[C@@H]2Cc2ccc3c(c2)CN(C2CCC(=O)NC2=O)C3=O)c([2H])c1[2H]` (stereo partly drawn) [Example 26, 3-(5-(((1R,2S)-2-(bis((phenyl-d5)methyl)amino)cyclohexyl)methyl)-1-oxoisoindolin-2-yl)piperidine-2,6-dione], the DC50 at IKZF1 is over 1000 nM. On IKZF2 [2], the Dmax amounted to 57% and the DC50 was 530 nM.
